Active and inactive are the calls of the source. The calls are words filed in the database; no cut-off is given here.
Key:
Mus musculus = test: Reduction in circulating free fatty acids in food-deprived C57/B16 mouse at 100 mg/kg, ip measured after 30 mins by NEFA assay; assay type: functional, organism-based
Adipocyte = test: Inhibition of lipolysis in Sprague-Dawley rat epididymal adipocytes pre-incubated for 10 mins before theophylline addition followed by further incubation for 3 hrs by microplate reader based assay; assay type: functional, cell-based
Rattus norvegicus = test: Reduction in circulating free fatty acids in food-deprived Sprague-Dawley rat at 1 to 100 mg/kg, po measured after 10 to 240 mins post dose by NEFA assay; assay type: functional, organism-based

IC50 (Adipocyte) [nM] | SMILES | inhibition (Mus musculus) | inhibition (Rattus norvegicus)
 | O=C(O)c1cccnc1 | Active | 
 | Oc1ccc2ncn(-c3ccccc3C(F)(F)F)c2n1 | Active | 
234 | Oc1ccc2ncn(-c3ccccc3Cl)c2n1 | Active | Active

From ChEMBL document CHEMBL3714758, “3H-imidazo[4,5-b]pyridin-5-ol derivatives useful in the treatment of GPR81 receptor disorders” (2013)
